Measurements as given in patent US20080200538A1, “Inhibition of Monocyte Survival, Differentiation, or Proliferation” (The Ohio State University Research Foundation, priority 2005, published 2008).

Assays:
Akt = assay: Western blot of Akt phosphorylation and total Akt in THP-1 cells; format: cell-based, human; conditions: THP-1, 10 or 25 μM SB203580 1 h prior to 50 μM apigenin for 3 h
Description: FIG. 5. Apigenin affects Akt phosphorylation. THP-1 cells were treated with 50 μM apigenin for different lengths of time. Lysates were separated by SDS-PAGE, transferred and immunoblotted with anti-phospho-Akt (pSer 473), anti-phospho-Akt (pThr 308), total Akt, and â-tubulin antibodies.
FIG. 6. Apigenin induces the activation of p38 and inactivation of Akt. A. THP-1 cells were treated with 50 μM apigenin for various lengths of time. Lysates were separated by SDS-PAGE, transferred and analyzed by immunoblots with anti-phospho-p38 (pp 38) and anti-total-p38 antibodies. B. […] Lysates were analyzed by immunoblotting with anti-phospho-Akt (pSer 473), anti-phospho-p38 (p-p38), and anti-total-p38 antibodies.
Extracts from 3×10^6 cells were prepared by incubating cells for 30 min on ice in lysis buffer (50 mM Tris, 10 mM EDTA 0.5% NP-40, 10 mM Na-glycerophosphate, 5 mM Na-pyrophosphate, 50 mM NaF, 1 mM orthovanadate, 1 mM DTT, 0.1 mM PMSF, 2 μg/ml of protease inhibitors: chymostatin, pepstatin, antipain, and leupeptin). Cell lysates were centrifuged (14,000×g for 10 min at 4° C.) and the supernatants were stored for at −70° C. for future analysis. Equal amounts of protein were loaded and separated by SDS-PAGE, transferred onto nitrocellulose membranes and probed with antibodies of interest followed by horseradish peroxidase conjugated secondary antibody and visualized by enhanced chemiluminescence (Amersham, Arlington Heights, Ill.). Phospho-Ser473-Akt, phospho-Thr308-Alt, total AKT, phospho-p38 and total p38 antibodies were obtained from Cell Signaling (Boston, Mass.). â-tubulin antibody was obtained from Upstate (Charlottesville, Va.).

p38 = assay: Western blot of p38 phosphorylation in THP-1 cells; format: cell-based, human; conditions: THP-1, 10 or 25 μM SB203580 1 h prior to 50 μM apigenin for 3 h
Description: A. THP-1 cells were treated with 50 μM apigenin for various lengths of time. Lysates were separated by SDS-PAGE, transferred and analyzed by immunoblots with anti-phospho-p38 (pp 38) and anti-total-p38 antibodies. B. THP-1 cells were treated for 6 hr with 50 μM apigenin alone (lane 2), treated with the apigenin diluent (lane 1), pretreatred with 10 or 25 μM SB203580 for 1 hr prior to the addition of apigenin (lanes 3 and 4) or with the SB203580 inhibitor alone (lanes 5 and 6).
Extracts from 3×10^6 cells were prepared by incubating cells for 30 min on ice in lysis buffer (50 mM Tris, 10 mM EDTA 0.5% NP-40, 10 mM Na-glycerophosphate, 5 mM Na-pyrophosphate, 50 mM NaF, 1 mM orthovanadate, 1 mM DTT, 0.1 mM PMSF, 2 μg/ml of protease inhibitors: chymostatin, pepstatin, antipain, and leupeptin). Cell lysates were centrifuged (14,000×g for 10 min at 4° C.) and the supernatants were stored for at −70° C. for future analysis. Equal amounts of protein were loaded and separated by SDS-PAGE, transferred onto nitrocellulose membranes and probed with antibodies of interest followed by horseradish peroxidase conjugated secondary antibody and visualized by enhanced chemiluminescence (Amersham, Arlington Heights, Ill.). […]

caspase-3 = assay: Caspase-3 activity, DEVD-AFC assay, THP-1 lysates; format: cell-based, human
Description: FIG. 3. Apigenin induces caspase activation in monocytic leukemia. THP-1 (top) and U937 (bottom) leukemia cells were treated for various lengths of time with 50 μM apigenin or DMSO (NT). (A and C) Caspase-9 activity was determined by the LEHDAFC assay. (B and D) Caspase-3 activity was determined by the DEVD-AFC assay. Data represents means ±SEM (N=3).
(§1) FIG. 4. Caspase-3 activation is required for apigenin-induced apoptosis. THP-1 cells were treated for 12 h with 50 μM apigenin alone or pretreated with 20 μM DEVD-FMK for 1 h prior to the addition of apigenin. (A) Cells were then stained with calcein AM and 24 PI and the percentage of apoptotic cells was determined. (B) Lysates from cells treated as described above were used to determined caspase-3 activity by the DEVD-AFC assay. All data represents means ±SEM (N=5).
(§2) FIG. 7. Apigenin induced p38 activation is not required for apoptosis. A. Cells were pretreated for 1 h prior to addition of 50 μM apigenin or DMSO (−) with 10 or 25 μM concentrations of SB203580 or DMSO (−) for 12 h. The percentage of apoptotic cells was determined by calcein AM with PI stained cells. Data represents means ±SEM (N=5 p>0.05). B. Lysates from the same treatments were used to determined caspase-3 activity by the DEVD-AFC assay. Data represents means ±SEM (N=5 p>0.05).
For measurements of caspase activity, cells were plated at a density of 1.5×10^6 cells/well. After treatment, cells extracts were prepared as previously described (Doseff, A. I., Baker J. H., Bourgeois T. A. and Wewers M. D. (2003) Interleukin-4-induced zpoptosis entails caspase activation and suppression of extracellular signal-regulated kinase phosphorylation. Am. J. Resp. Cell Mol. Biol., 29, 367-374). […] Levels of released AFC were measured using Cytofluor 400 fluorimeter (Filters: excitation 400 nm, emission 508 nm; Perspective Co., Framingham, Mass.).

THP-1 cells [1] = assay: Cell survival and apoptosis by calcein AM/PI staining; format: cell-based, human
Description: FIG. 2. Apigenin induces cell death in monocytic leukemia cells. THP-1 and U937 leukemia cells were treated for various lengths of time with 50 μM apigenin or left untreated (NT) and stained with calcein AM and PI as described in Material and Methods to evaluate the percentage of cell survival. (A) THP cells after 12 h cells treated with 50 μM apigenin or with DMSO (NT). (B) The percentage of cell survival represented by means ±SEM (N=3).
as §1, §2
To investigate apoptosis, cells were plated at a density of 1×10^6 cells/well. After treatment, cells were collected and washed in PBS. Cells were then incubated in RPMI (no phenol red) and 1 μg/ml calcein AM for 30 min and 5×10−2 ng/ml propidium iodide (PI) for 5 min. Cells were washed twice and resuspended in PBS. Cells were viewed using a fluorescent microscope (Olympus, Melville, N.Y.). At least 200 cells were counted. Cells calcein AM positive (green) in the absence of PI (red) were considered alive while cells undergoing apoptosis are green with red. Number of green cells or green with red cells was counted over total number of cells (green alone and green with red) to express cell survival or apoptotic cell percentage respectively.

THP-1 cells [2] = tested on: THP-1 cells
MCF-7 cells = assay: Cell viability assay (CellTiter 96 / MTT, A490); format: cell-based; conditions: MCF-7, up to 500 μM naringenin, 24 h; reduced by
Description: (§3) FIG. 1. Effect of apigenin and naringenin in cell survival of cancer cells. (A) Structure of the flavonoids apigenin and naringenin. (B) THP-1, U937, A549, and MCF-7 cells were treated with various doses of apigenin or naringenin for 24 h. After the treatment, the percentage of cell proliferation was calculated as the ratio of treated cells to control cells as determined by the MTT method (A490). Data represents means ±SEM (N=9). […] Cells were plated at a density of 2×10^4 cells/well into 96-well plates and treated with flavonoids at indicated concentrations for 24 h. Absorbance at 490 nm (A490) was recorded using an ELISA plate reader (Bio-Tek ELx800, KC Junior, Winooski, Vt.).

A549 cells = assay: Cell viability assay (CellTiter 96 / MTT, A490); format: cell-based; conditions: A549, up to 500 μM naringenin, 24 h; reduced by
Description: as §3

THP-1 cells [3] = assay: Cell viability assay (CellTiter 96 / MTT, A490); format: cell-based, human; conditions: THP-1, 500 μM naringenin, 24 h; reduced to
Description: as §3

U937 cells = assay: Cell viability assay (CellTiter 96 / MTT, A490); format: cell-based, human; conditions: U937, 500 μM naringenin, 24 h; reduced to
Description: as §3

[4] = THP-1, 20 μM DEVD-FMK 1 h prior to 50 μM apigenin for 12 h

`C[S+]([O-])c1ccc(-c2nc(-c3ccncc3)c(-c3ccc(F)cc3)[nH]2)cc1` (centres unmarked) [SB203580, reference compound] was tested, and the “Akt phosphorylation at Ser473” value (Akt) was “increase”, the “apigenin-induced p38 phosphorylation” value (p38) was “significantly reduced” and the caspase-3 activity (caspase-3; THP-1, SB203580 and 50 μM apigenin vs apigenin alone, P>0.05) was “similar”. The “number of apoptotic cells induced by apigenin” value (THP-1 cells [1]; THP-1, SB203580 (10 or 25 μM) 1 h prior to 50 μM apigenin, 12 h, vs apigenin alone, P>0.05) was “did not result in a reduction”.

In the case of `O=C1C[C@@H](c2ccc(O)cc2)Oc2cc(O)cc(O)c21` [naringenin, reference compound], the “conversion to another chemical entity in treated cells” value (THP-1 cells [2]) was “neither one of these two compounds is significantly converted”, the “reduction of cell proliferation” value (MCF-7 cells) was 20% and the “reduction of cell proliferation” value (A549 cells) was 20%. For the same compound, the “cell proliferation (ratio of treated to control cells)” value (THP-1 cells [3]) was 60% and the “cell proliferation (ratio of treated to control cells)” value (U937 cells) was 60%.

For “DEVD-FMK: caspase-3 inhibitor obtained from Enzyme System Products [reference compound]”, the “effect on apigenin-induced caspase-3 activity” value (caspase-3; [4]) was “inhibited the apigenin-induced activation of caspase-3 to the levels observed in untreated cells” and the apoptotic cells (THP-1 cells [1]; [4]) was < 10%.
